# Laboratory results: patent publication US20030092760A1, “Therapeutic agent for renal failure” (Toray Industries, Inc., priority 2001, published 2003)
# Key:
# [1] = tested on: ⅚ nephrectomized rat model; test: Effect on ⅚ nephrectomized rat model: renal functions; type: in vivo, Wistar rats
# Procedure: The effect of beraprost sodium on a ⅚ nephrectomized rat model, which has been widely used as a model animal for renal failure, was examined. Two-thirds of the left kidney was removed from each of 4-week-old male Wistar rats (Charles River Japan Inc.) with a razor, and all of the right kidney was then removed therefrom one week after. Three weeks after the initial surgery, blood was collected from each rat through the tail vein and serum creatinine and BUN levels were determined from the blood. At this point of time, the urine was also collected for 24 hours to determine the mass of proteins in the urine. The rats were allocated to one of the treatment groups by the stratifying continuous randomization method based on the mass of proteins in the urine and the body weight (n=8 per group). […] Three weeks after the initial surgery, beraprost sodium or captopril (SIGMA, i.e., a positive control) was orally administered to each rat twice a day everyday, beginning the day on which administration of a drug was started and continued through five weeks after the administration. The determination of the renal functions was performed both three weeks and five weeks after the initial administration of a drug. The photographic images of the renal tissue were observed only five weeks after the initial administration.
# [2] = tested on: glomerulonephritis model rats in renal failure stage; test: Glomerulonephritis model rats, renal failure stage, oral administration; settings: for Increase in urinal total protein excretion (in words): renal failure stage, two weeks through four weeks after induction
# Procedure: (§1) Eight-week-old male WKY rats (Charles River Japan Inc.) were administered intravenously with rabbit anti-rat glomerular basement membrane antiserum to induce glomerulonephritis. […] The frequency of the administration was twice a day for beraprost sodium and captopril and once a day for prednisolone. After the initial administration of a drug, urinary total protein excretion (which is a measure of renal functions) was determined.
# [3] = tested on: ⅚ nephrectomized rat model; test: ⅚ nephrectomized rat model: observation of renal tissue images (histopathological change); type: in vivo, Wistar rats; settings: for Framework: Infiltration of mononuclear cells / Renal corpuscle: Cellular filling in glomerulus / Renal corpuscle: Coagulation of glomeruli in Bowman's capsule / Renal corpuscle: Deposition of PAS + materials in Bowman's capsule / Renal corpuscle: Epidermal growth in Bowman's capsule / Renal corpuscle: Glomerular hypertrophy / Renal corpuscle: Glomerulosclerosis / Uriniferous tuble: Basophilic degeneration of tubules / Uriniferous tuble: Proliferation of proximal tubules / Uriniferous tuble: Proteinaceous urinary casts / Uriniferous tuble: Tubular dilation: number of animals with change in 8 animals per group, five weeks after initial administration
# Procedure: The effect of beraprost sodium on a ⅚ nephrectomized rat model, which has been widely used as a model animal for renal failure, was examined. Two-thirds of the left kidney was removed from each of 4-week-old male Wistar rats (Charles River Japan Inc.) with a razor, and all of the right kidney was then removed therefrom one week after. Three weeks after the initial surgery, blood was collected from each rat through the tail vein and serum creatinine and BUN levels were determined from the blood. At this point of time, the urine was also collected for 24 hours to determine the mass of proteins in the urine. The rats were allocated to one of the treatment groups by the stratifying continuous randomization method based on the mass of proteins in the urine and the body weight (n=8 per group). There was observed little difference in the initial values of blood creatinine and BUN values among the rats. Three weeks after the initial surgery, beraprost sodium or captopril (SIGMA, i.e., a positive control) was orally administered to each rat twice a day everyday, beginning the day on which administration of a drug was started and continued through five weeks after the administration. The determination of the renal functions was performed both three weeks and five weeks after the initial administration of a drug. The photographic images of the renal tissue were observed only five weeks after the initial administration. […] Five weeks after the initial administration, more exacerbation of chronic renal failure was observed. […] The same tendency was shown five weeks after the initial administration (Table 2).
# [4] = tested on: glomerulonephritis model rats in inflammatory stage; test: Glomerulonephritis model rats, inflammatory stage, oral administration; settings: for Urinary total protein excretion: 7 days after induction (1 week after initial administration); for Increase in urinal total protein excretion (in words): day 1 through day 7 after induction
# Procedure: as §1
# [5] = tested on: renal failure rat models of which the primary disease is glomerulonephritis; test: Renal failure rat models of which the primary disease is glomerulonephritis, subcutaneous osmotic pump; type: in vivo, WKY rats
# Description: Renal failure rat models of which the primary disease was glomerulonephritis were used to examine the effect of different 4,8-inter-m-phenylene prostaglandin I2 derivatives including beraprost sodium on the models. […] Two weeks after the induction, blood was collected from each rat through the tail vein to determine blood creatinine and BUN levels. […] Four types of 4,8-inter-m-phenylene prostaglandin I2 derivatives in total, including beraprost sodium, were individually administered subcutaneously to the rats from the back continuously with an osmotic pump (ALZET) for one week, beginning two weeks after induction of glomerulonephritis and continued through three weeks after the induction. The renal functions (i.e., blood creatinine and BUN levels) were determined one week after the initial administration of a drug.
# [6] = 50 mg/kg oral twice a day, five weeks after the administration of a drug
# [7] = 50 mg/kg oral twice a day, three weeks after the administration of a drug
# [8] = Table 5, 60 μg/kg group, 2 weeks after induction (before administration)
# [9] = Table 5, 60 μg/kg s.c. osmotic pump, 3 weeks after induction (1 week after the initial administration)
# [10] = 100 μg/kg oral twice a day, five weeks after the administration of a drug
# [11] = 100 μg/kg oral twice a day, three weeks after the administration of a drug
# [12] = 300 μg/kg oral twice a day, five weeks after the administration of a drug
# [13] = 300 μg/kg oral twice a day, three weeks after the administration of a drug
# [14] = 60 μg/kg group, 2 weeks after induction (before administration)
# [15] = 60 μg/kg s.c. osmotic pump, 3 weeks after induction (1 week after the initial administration)
# [16] = 200 μg/kg group, 2 weeks after induction (before administration)
# [17] = 200 μg/kg s.c. osmotic pump, 3 weeks after induction (1 week after the initial administration)
smiles,measurement,setting,value
"C[C@H](CS)C(=O)N1CCC[C@H]1C(=O)O [Captopril, captopril, reference compound]",Blood urea nitrogen,[1]; [6],47.8 ± 5.2 mg/dL
same,Urinary protein excretion,[1]; [6],255.5 ± 76.6 mg/24 hr/kgBW
same,Blood urea nitrogen,[1]; [7],51.4 ± 3.7 mg/dL
same,Urinary protein excretion,[1]; [7],136.8 ± 29.9 mg/24 hr/kgBW
same,Urinary total protein excretion,"[2]; 50 mg/kg group, renal failure stage Exp. 2, 2 weeks after induction (before administration)",318 ± 22 mg/24 hr
same,Urinary total protein excretion,"[2]; 50 mg/kg oral twice a day, renal failure stage Exp. 2, 4 weeks after induction (2 week after initial administration)",504 ± 51 mg/24 hr
same,Urinary total protein excretion,"[2]; 100 mg/kg group, renal failure stage Exp. 2, 2 weeks after induction (before administration)",325 ± 6 mg/24 hr
same,Urinary total protein excretion,"[2]; 100 mg/kg oral twice a day, renal failure stage Exp. 2, 4 weeks after induction (2 week after initial administration)",517 ± 33 mg/24 hr
same,Increase in urinal total protein excretion (in words),[2],no effective prevention
same,Framework: Infiltration of mononuclear cells,[3]; 50 μg/kg,7
same,Renal corpuscle: Cellular filling in glomerulus,[3]; 50 μg/kg,4
same,Renal corpuscle: Coagulation of glomeruli in Bowman's capsule,[3]; 50 μg/kg,2
same,Renal corpuscle: Deposition of PAS + materials in Bowman's capsule,[3]; 50 μg/kg,1
same,Renal corpuscle: Epidermal growth in Bowman's capsule,[3]; 50 μg/kg,2
same,Renal corpuscle: Glomerular hypertrophy,[3]; 50 μg/kg,1
same,Renal corpuscle: Glomerulosclerosis,[3]; 50 μg/kg,2
same,Uriniferous tuble: Basophilic degeneration of tubules,[3]; 50 μg/kg,6
same,Uriniferous tuble: Proliferation of proximal tubules,[3]; 50 μg/kg,8
same,Uriniferous tuble: Proteinaceous urinary casts,[3]; 50 μg/kg,4
same,Uriniferous tuble: Tubular dilation,[3]; 50 μg/kg,8
same,Urinary total protein excretion,[4]; 50 mg/kg oral twice a day,75 ± 14 mg/24 hr
same,Increase in urinal total protein excretion (in words),[4],effective prevention
"C[C@]12C=CC(=O)C=C1CC[C@@H]1[C@@H]2[C@@H](O)C[C@@]2(C)[C@H]1CC[C@]2(O)C(=O)CO [Prednisolone, prednisolone]",Urinary total protein excretion,"[2]; 2 mg/kg group, renal failure stage Exp. 1, 2 weeks after induction (before administration)",368 ± 20 mg/24 hr
same,Urinary total protein excretion,"[2]; 2 mg/kg oral once a day, renal failure stage Exp. 1, 3 weeks after induction (1 week after initial administration)",456 ± 78 mg/24 hr
same,Increase in urinal total protein excretion (in words),[2],no effective prevention
same,Urinary total protein excretion,[4]; 2 mg/kg oral once a day,38 ± 8 mg/24 hr
same,Increase in urinal total protein excretion (in words),[4],effective prevention
O=C([O-])/C=C/Cc1cccc2c1OC1CC(O)C(/C=C/C(O)c3ccccc3)C21.[Na+] (centres unmarked) [Compound 2],BUN,[5]; [8],28 ± 2 mg/dL
same,Blood creatinine,[5]; [8],0.45 ± 0.04 mg/dL
same,BUN,[5]; [9],31 ± 3 mg/dL
same,Blood creatinine,[5]; [9],0.44 ± 0.05 mg/dL
O=C([O-])CCCc1cccc2c1OC1CC(O)C(C#CC(O)C3CCCCC3)C21.[Na+] (centres unmarked) [Compound 1],BUN,[5]; [8],29 ± 2 mg/dL
same,Blood creatinine,[5]; [8],0.44 ± 0.05 mg/dL
same,BUN,[5]; [9],27 ± 2 mg/dL
same,Blood creatinine,[5]; [9],0.41 ± 0.02 mg/dL
"CC#CCC(C)[C@H](O)/C=C/C1[C@H](O)C[C@@H]2Oc3c(CCCC(=O)[O-])cccc3[C@H]12.[Na+] (mixture of isomers) [Beraprost sodium, beraprost sodium]",Blood urea nitrogen,[1]; [10],45.5 ± 3.3 mg/dL
same,Creatinine clearance,[1]; [10],156.9 ± 19.5 μl/min/100 gBW
same,Urinary protein excretion,[1]; [10],276.5 ± 69.2 mg/24 hr/kgBW
same,Urinary volume,[1]; [10],21.7 ± 3.1 ml/24 hr
same,Blood urea nitrogen,[1]; [11],55.9 ± 3.7 mg/dL
same,Creatinine clearance,[1]; [11],134.1 ± 11.0 μl/min/100 gBW
same,Urinary protein excretion,[1]; [11],125.3 ± 20.8 mg/24 hr/kgBW
same,Urinary volume,[1]; [11],20.1 ± 2.8 ml/24 hr
same,Blood urea nitrogen,[1]; [12],45.1 ± 3.5 mg/dL
same,Creatinine clearance,[1]; [12],143.5 ± 10.0 μl/min/100 gBW
same,Urinary protein excretion,[1]; [12],197.1 ± 21.1 mg/24 hr/kgBW
same,Urinary volume,[1]; [12],20.4 ± 1.7 ml/24 hr
same,Blood urea nitrogen,[1]; [13],50.9 ± 3.6 mg/dL
same,Creatinine clearance,[1]; [13],136.4 ± 9.9 μl/min/100 gBW
same,Urinary protein excretion,[1]; [13],154.4 ± 53.0 mg/24 hr/kgBW
same,Urinary volume,[1]; [13],20.4 ± 3.7 ml/24 hr
same,"Effect on urinary protein level, creatinine clearance and BUN level (in words)","[1]; three weeks after the initial administration, same tendency five weeks after",significant prevention of increase in the urinary protein level and prevention of reduction in the creatinine clearance and increase in the BUN level
same,Urinary total protein excretion,"[2]; 300 μg/kg group, renal failure stage Exp. 1, 2 weeks after induction (before administration)",374 ± 21 mg/24 hr
same,Urinary total protein excretion,"[2]; 300 μg/kg group, renal failure stage Exp. 2, 2 weeks after induction (before administration)",321 ± 23 mg/24 hr
same,Urinary total protein excretion,"[2]; 300 μg/kg oral twice a day, renal failure stage Exp. 1, 3 weeks after induction (1 week after initial administration)",300 ± 51 mg/24 hr
same,Urinary total protein excretion,"[2]; 300 μg/kg oral twice a day, renal failure stage Exp. 2, 4 weeks after induction (2 week after initial administration)",295 ± 46 mg/24 hr
same,Increase in urinal total protein excretion (in words),[2],markedly prevented
same,Framework: Infiltration of mononuclear cells,[3]; 100 μg/kg,7
same,Renal corpuscle: Cellular filling in glomerulus,[3]; 100 μg/kg,7
same,Renal corpuscle: Coagulation of glomeruli in Bowman's capsule,[3]; 100 μg/kg,2
same,Renal corpuscle: Deposition of PAS + materials in Bowman's capsule,[3]; 100 μg/kg,2
same,Renal corpuscle: Epidermal growth in Bowman's capsule,[3]; 100 μg/kg,1
same,Renal corpuscle: Glomerular hypertrophy,[3]; 100 μg/kg,3
same,Renal corpuscle: Glomerulosclerosis,[3]; 100 μg/kg,2
same,Uriniferous tuble: Basophilic degeneration of tubules,[3]; 100 μg/kg,8
same,Uriniferous tuble: Proliferation of proximal tubules,[3]; 100 μg/kg,8
same,Uriniferous tuble: Proteinaceous urinary casts,[3]; 100 μg/kg,5
same,Uriniferous tuble: Tubular dilation,[3]; 100 μg/kg,8
same,Framework: Infiltration of mononuclear cells,[3]; 300 μg/kg,7
same,Renal corpuscle: Cellular filling in glomerulus,[3]; 300 μg/kg,4
same,Renal corpuscle: Coagulation of glomeruli in Bowman's capsule,[3]; 300 μg/kg,1
same,Renal corpuscle: Deposition of PAS + materials in Bowman's capsule,[3]; 300 μg/kg,1
same,Renal corpuscle: Epidermal growth in Bowman's capsule,[3]; 300 μg/kg,1
same,Renal corpuscle: Glomerular hypertrophy,[3]; 300 μg/kg,2
same,Renal corpuscle: Glomerulosclerosis,[3]; 300 μg/kg,1
same,Uriniferous tuble: Basophilic degeneration of tubules,[3]; 300 μg/kg,8
same,Uriniferous tuble: Proliferation of proximal tubules,[3]; 300 μg/kg,8
same,Uriniferous tuble: Proteinaceous urinary casts,[3]; 300 μg/kg,2
same,Uriniferous tuble: Tubular dilation,[3]; 300 μg/kg,8
same,"Progress of the glomerular conditions (renal tissue images, in words)",[3]; five weeks after the initial administration,markedly prevented
same,Urinary total protein excretion,[4]; 300 μg/kg oral twice a day,17 ± 7 mg/24 hr
same,Increase in urinal total protein excretion (in words),[4],markedly prevented
same,BUN,[5]; [14],28 ± 3 mg/dL
same,Blood creatinine,[5]; [14],0.61 ± 0.07 mg/dL
same,BUN,[5]; [15],31 ± 2 mg/dL
same,Blood creatinine,[5]; [15],0.48 ± 0.04 mg/dL
same,BUN,[5]; [16],30 ± 3 mg/dL
same,Blood creatinine,[5]; [16],0.62 ± 0.06 mg/dL
same,BUN,[5]; [17],25 ± 1 mg/dL
same,Blood creatinine,[5]; [17],0.49 ± 0.04 mg/dL
same,Blood creatinine and BUN levels compared with the control group (in words),[5]; three weeks after the induction of glomerulonephritis,significantly decreased
O=C([O-])CCCc1cccc2c1OC1CC(O)C(/C=C/C(O)c3ccccc3)C21.[Na+] (centres unmarked) [Compound 3],BUN,[5]; [8],28 ± 3 mg/dL
same,Blood creatinine,[5]; [8],0.45 ± 0.05 mg/dL
same,BUN,[5]; [9],30 ± 3 mg/dL
same,Blood creatinine,[5]; [9],0.39 ± 0.04 mg/dL
